Laboratory results from article PMC5130005, “Indolin-2-one compounds targeting thioredoxin reductase as potential anticancer drug leads” (Oncotarget, 2016).

Test system: Trx-ASK1 complex in ASK1-overexpressing HCT 116 cells
Test: Trx-ASK1 interaction by Trx immunoprecipitation
Assay type: cell-based, human
Procedure: HCT 116 cells were seeded in 60 mm plates and upon reaching 40% confluency, they were transfected with 1.5 μg of pCMV-SPORT6-ASK1 per plate. When the transfected cells reached ~70% confluency, they were treated with DMSO or compound 4 at indicated concentrations for 4 h and lysates were collected for immunoprecipitation set-up. For each lysate sample, a volume containing 1 mg of protein was mixed with 1.5 μg of anti-Trx antibody coupled to 20 μl of protein G-sepharose (GE Healthcare) and tumbled at 4°C for 2 h. The G-sepharose beads were washed three times in a cold washing buffer containing 20 mM Tris (pH 7.5), 0.5 M NaCl and 1 mM EGTA and once in a buffer containing 50 mM Tris (pH 7.5). The immunoprecipitated proteins were denatured in SDS sample buffer containing 5% β-mercaptoethanol and subjected to SDS-PAGE and Western blotting.

## CCCCN1C(=O)/C(=C/C(C)=O)c2ccccc21 [Compound 4]
  amount of ASK1 bound to Trx1: dose-dependent decrease
